Measured values: patent US9980948B2, “Azaindole derivative having AMPK-activating activity” (Shionogi & Co., Ltd., priority 2014, dated 2018)
Where two headings read alike, the source gives them in different places.

Target: T1, Human AMPK α2β2γ1 (Homo sapiens, UniProt O43741+P54646)
T1 construct: The full length cDNAs of human AMPK β2 (NM_005399.3) and human AMPK α2 (NM_006252.3); The full length cDNAs of human AMPK β2 (NM_005399.3); the full length cDNA of human AMPK γ1 (NM_002733.3) had been inserted into pET28b(+); 6xHis (N); made in house; host or cells: Escherichia coli BL21 CodonPlus (DE3)-RTL (AMPK); BL21 Star (DE3) (CaMKKβ)
T1 sequence (P54646 whole entry): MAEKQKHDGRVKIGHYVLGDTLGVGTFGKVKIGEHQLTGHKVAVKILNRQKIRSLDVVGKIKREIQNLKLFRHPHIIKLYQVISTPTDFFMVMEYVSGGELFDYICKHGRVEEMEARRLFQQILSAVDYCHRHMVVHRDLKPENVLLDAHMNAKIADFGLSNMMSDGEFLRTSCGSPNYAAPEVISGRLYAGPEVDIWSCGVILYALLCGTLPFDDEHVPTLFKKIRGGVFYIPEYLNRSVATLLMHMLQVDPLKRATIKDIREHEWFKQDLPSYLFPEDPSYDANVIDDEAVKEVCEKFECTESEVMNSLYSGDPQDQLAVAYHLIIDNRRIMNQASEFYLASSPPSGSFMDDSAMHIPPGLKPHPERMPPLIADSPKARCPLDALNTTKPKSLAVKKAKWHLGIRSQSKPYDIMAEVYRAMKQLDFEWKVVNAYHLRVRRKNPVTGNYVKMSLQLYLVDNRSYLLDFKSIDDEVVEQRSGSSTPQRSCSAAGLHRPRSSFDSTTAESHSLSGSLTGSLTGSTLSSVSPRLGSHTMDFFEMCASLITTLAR
T1 sequence (O43741 whole entry): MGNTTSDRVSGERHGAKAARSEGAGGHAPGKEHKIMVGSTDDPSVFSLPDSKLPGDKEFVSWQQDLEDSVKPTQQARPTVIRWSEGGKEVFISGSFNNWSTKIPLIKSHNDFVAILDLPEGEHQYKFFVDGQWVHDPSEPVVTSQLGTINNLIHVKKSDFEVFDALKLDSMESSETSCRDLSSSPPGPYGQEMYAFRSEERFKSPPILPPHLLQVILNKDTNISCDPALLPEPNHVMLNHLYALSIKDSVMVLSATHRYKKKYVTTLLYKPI
T1 sequence (P54619 whole entry partner): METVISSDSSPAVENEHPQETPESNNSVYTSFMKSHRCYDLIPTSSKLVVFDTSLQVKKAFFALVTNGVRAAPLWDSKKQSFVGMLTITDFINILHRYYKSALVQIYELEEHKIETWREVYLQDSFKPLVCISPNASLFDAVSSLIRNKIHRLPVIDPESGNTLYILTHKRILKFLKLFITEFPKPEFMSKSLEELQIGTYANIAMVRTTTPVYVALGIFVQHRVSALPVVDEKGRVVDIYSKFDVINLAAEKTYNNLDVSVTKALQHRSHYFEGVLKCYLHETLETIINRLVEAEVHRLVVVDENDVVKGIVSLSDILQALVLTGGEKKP
Assay: Test Example 2: evaluation of an activator for AMP-activated protein kinase (AMPK), human AMPK α2β2γ1 phosphorylated with CaMKK2, FL-Peptide 7 mobility shift
Format: biochemical
Details: for Emax: read-out: Emax (maximum rate of increase in activity within the measurement range)
Protocol: The full length cDNAs of human AMPK β2 (NM_005399.3) and human AMPK α2 (NM_006252.3) were inserted into the MCS1 and MCS2 of the pETDuet-1 vector to prepare a human AMPK β2 and human AMPK α2 (6× His tag at the 5′ terminus) expressing plasmid. The plasmid was cotransfected with an expression plasmid, in which the full length cDNA of human AMPK γ1 (NM_002733.3) had been inserted into pET28b(+), into BL21 CodonPlus (DE3)-RTL to obtain an expression strain. The expression strain was cultured in TB medium, followed by induction with 0.5 mM IPTG, and cultured at 25° C. for 3 hours and then harvested.
An expression vector, in which the full length cDNA of human CAMKK β (NM_172226.1) had been inserted into pGEX-6P-3, was transfected into BL21 Star (DE3). The expression strain was cultured in TB medium, followed by induction with 0.5 mM IPTG, and cultured at 25° C. for 3 hours and then harvested.
Thus, phosphorylation treatment was carried out as pretreatment.
Human AMPK α2β2γ1 in an amount to give a conversion rate of approximately 10% by reaction for 2 hours, and CaMKK2 in an amount capable of sufficiently imparting activity to AMPK for one hour were mixed in a buffer solution consisting of a 50 mM HEPES-NaOH buffer solution (pH 7.0), 100 mM NaCl, 5 mM magnesium chloride, 0.1% bovine serum albumin, 0.2 mM sodium orthovanadate(V), 1 mM ethylene glycol-bis(2-aminoethyl ether)-N,N,N′,N′-tetraacetic acid (EGTA), 5 mM disodium β-glycerophosphate, 1 mM dithiothreitol and 0.2 mM ATP, and the obtained liquid was left to stand at 25° C. for 1 to 1.5 hours to sufficiently phosphorylate AMPK.
The obtained liquid was left to stand for 10 minutes.
The obtained liquid was allowed to react at 25° C. for 2 hours, and 10 μl of 20 mM EDTA was then added thereto to stop the reaction.
To detect phosphorylated fluorescent substrates, the reaction liquid was applied to a measuring device, LabChip EZ Reader II manufactured by Caliper Life Science, Inc., for detecting fluorescence by using differences in mobility due to differences in charge. The setting conditions for the device were pressure, −1.5 PSI; upstream voltage, −2250 V; downstream voltage, −400 V; post sample buffer sip time, 40 seconds; final delay, 120 seconds; and peak order, Product First.
A conversion rate was calculated from the peak heights of the resulting substrate and product. The conversion rate when not containing a compound was used as a control, and a concentration dependent curve was made by plotting the rate of increase in activity to the control at each concentration of a compound.

[1] = human AMPK α2β2γ1, 0.2 mM ATP final, 25° C., 2 hours
[2] = human AMPK α2β2γ1, relative to control (100%)

SMILES	EC150 (compound concentration showing 150% relative to the control (100%)) [1] [nM]	Emax [2] [%]	Emax (maximum rate of increase in activity within the measurement range) [2] [%]	EC150 (compound concentration showing 150% relative to the control (100%)) [nM]	Emax (maximum rate of increase in activity within the measurement range) [%]
N#Cc1c(O[C@@H]2CO[C@H]3[C@@H]2OC[C@H]3O)[nH]c2cc(Cl)c(OCc3c(F)cccc3F)nc12 [Compound I-1-1]	330	660	–	–	–
N#Cc1cc2[nH]c(O[C@@H]3CO[C@H]4[C@@H]3OC[C@H]4O)cc2nc1-c1ccc(N2CCOCC2)cc1 [Compound I-1-4]	8.3	849	–	–	–
O[C@@H]1CO[C@H]2[C@@H]1OC[C@H]2Oc1cc2nc(-c3c(F)cc(C4=CCOCC4)cc3F)c(F)cc2[nH]1 [Compound I-1-6]	2	647	–	–	–
N#Cc1c(O[C@@H]2CO[C@H]3[C@@H]2OC[C@H]3O)[nH]c2cc(Cl)c(-c3ccc(-c4ccccc4)cc3)nc12 [Compound I-1-7]	59	805	–	–	–
O=C(O)C1CC=C(c2ccc(-c3nc4cc(O[C@H]5CCOC5)[nH]c4cc3Cl)cc2)CC1 (some centres unmarked) [Compound I-1-8]	4.1	338	–	–	–
O=C(CO)N1CC=C(c2cc(F)c(-c3nc4cc(O[C@@H]5CO[C@H]6[C@@H]5OC[C@H]6O)[nH]c4cc3Cl)c(F)c2)CC1 [Compound I-1-10]	1.8	751	–	–	–
O[C@@H]1CO[C@H]2[C@@H]1OC[C@H]2Oc1[nH]c2cc(Cl)c(-c3ccc(N4CCOCC4)cc3)nc2c1Cl [Compound I-1-11]	3.9	770	–	–	–
N#Cc1c(O[C@@H]2CO[C@H]3[C@@H]2OC[C@H]3O)[nH]c2cc(Cl)c(-c3ccc(C4=CCN(C(=O)CO)CC4)cc3)nc12 [Compound I-1-12]	23	779	–	–	–
O[C@@H]1CO[C@H]2[C@@H]1OC[C@H]2Oc1[nH]c2cc(Cl)c(-c3c(F)cc(C4=CCOCC4)cc3F)nc2c1Cl [Compound I-1-15]	53	680	–	–	–
CC(C)(C(=O)O)[C@H]1CC[C@H](Oc2cc3nc(-c4c(F)cc(N5CCOCC5)cc4F)c(Cl)cc3[nH]2)CC1 [Compound I-1-16]	810	204	–	–	–
OC[C@@H]1C[C@H](Oc2cc3nc(-c4c(F)cc(N5CCOCC5)cc4F)c(Cl)cc3[nH]2)CO1 [Compound I-1-18]	22	776	–	–	–
O=C(O)C1CC=C(c2ccc(-c3nc4c(Cl)c(O[C@@H]5CO[C@H]6[C@@H]5OC[C@H]6O)[nH]c4cc3Cl)cc2)CC1 (some centres unmarked) [Compound I-1-20]	2.9	746	–	–	–
O=C(O)C1CC=C(c2cc(F)c(-c3nc4cc(O[C@H]5CCOC5)[nH]c4cc3Cl)c(F)c2)CC1 (some centres unmarked) [Compound I-1-23]	11	341	–	–	–
O[C@@H]1CO[C@H]2[C@@H]1OC[C@H]2Oc1cc2nc(-c3ccc(N4CCOCC4)cc3F)c(Cl)cc2[nH]1 [Compound I-1-25]	11	768	–	–	–
CN(C)CCOc1ccc(-c2ccc(-c3nc4c(C#N)c(O[C@@H]5CO[C@H]6[C@@H]5OC[C@H]6O)[nH]c4cc3Cl)cc2)cc1 [Compound I-1-37]	6	859	–	–	–
COc1cccc(-c2ccc(-c3nc4c(C#N)c(O[C@@H]5CO[C@H]6[C@@H]5OC[C@H]6O)[nH]c4cc3Cl)cc2)c1O [Compound I-1-38]	1.5	841	–	–	–

SMILES	EC150 (compound concentration showing 150% relative to the control (100%)) [1] [nM]	Emax [2] [%]	Emax (maximum rate of increase in activity within the measurement range) [2] [%]	EC150 (compound concentration showing 150% relative to the control (100%)) [nM]	Emax (maximum rate of increase in activity within the measurement range) [%]
O[C@@H]1CO[C@H]2[C@@H]1OC[C@H]2Oc1cc2nc(-c3ccc(N4CCOCC4)cc3)c(F)cc2[nH]1 [Compound I-1-39]	5.3	788	–	–	–
CC(C)(C(=O)O)[C@H]1CC[C@H](Oc2cc3nc(-c4ccc(N5CC[C@@H](O)C5)cc4)c(Cl)cc3[nH]2)CC1 [Compound I-1-43]	98	302	–	–	–
O[C@@H]1CO[C@H]2[C@@H]1OC[C@H]2Oc1[nH]c2cc(F)c(-c3ccc(C4=CCOCC4)cc3)nc2c1Cl [Compound I-1-45]	13	718	–	–	–
O=C(CO)N1CC=C(c2ccc(-c3nc4cc(O[C@@H]5CO[C@H]6[C@@H]5OC[C@H]6O)[nH]c4cc3F)cc2)CC1 [Compound I-1-50]	2.4	827	–	–	–
O=C(O)C1CC=C(c2ccc(-c3nc4c(Cl)c(O[C@@H]5CO[C@H](CO)C5)[nH]c4cc3Cl)cc2)CC1 (some centres unmarked) [Compound I-1-55]	54	689	–	–	–
N#Cc1c(O[C@@H]2CO[C@H]3[C@@H]2OC[C@H]3O)[nH]c2cc(Cl)c(-c3ccc(-c4ccc(-n5cncn5)cc4)cc3)nc12 [Compound I-1-58]	3.8	836	–	–	–
O[C@@H]1CO[C@H]2[C@@H]1OC[C@H]2Oc1[nH]c2cc(Cl)c(-c3ccc(C4(O)CCC4)cc3)nc2c1Cl [Compound I-1-62]	5.7	851	–	–	–
C/C(=C\CNC(=O)CO)c1ccc(-c2nc3c(Cl)c(O[C@@H]4CO[C@H]5[C@@H]4OC[C@H]5O)[nH]c3cc2Cl)cc1 [Compound I-1-63]	6.3	791	–	–	–
O[C@@H]1CO[C@H]2[C@@H]1OC[C@H]2Oc1cc2nc(-c3ccc(N4CCOCC4)cc3)c(C(F)(F)F)cc2[nH]1 [Compound I-2-2]	38	–	511	–	–
O[C@@H]1CO[C@H]2[C@@H]1OC[C@H]2Oc1cc2nc(-c3ccc(N4CCOCC4)cc3)c(Cl)c(F)c2[nH]1 [Compound I-2-3]	6.9	508	–	–	–
N#Cc1c(Cl)c(-c2ccc(N3CCOCC3)cc2)nc2cc(O[C@@H]3CO[C@H]4[C@@H]3OC[C@H]4O)[nH]c12 [Compound I-2-7]	–	–	–	36	322
O[C@@H]1CO[C@H]2[C@@H]1OC[C@H]2Oc1[nH]c2cc(Cl)c(-c3ccc(N4CCOCC4)cc3)nc2c1F [Compound I-2-8]	8.9	–	447	–	–
O[C@@H]1CO[C@H]2[C@@H]1OC[C@H]2Oc1[nH]c2cc(Cl)c(-c3ccc(N4CCOCC4)cc3)nc2c1Br [Compound I-2-9]	66	–	395	–	–
O[C@@H]1CO[C@H]2[C@@H]1OC[C@H]2Oc1[nH]c2cc(C(F)(F)F)c(-c3ccc(N4CCOCC4)cc3)nc2c1F [Compound I-2-10]	49	–	506	–	–
Cn1cc(-c2ccc(-c3nc4c(C#N)c(O[C@@H]5CO[C@H]6[C@@H]5OC[C@H]6O)[nH]c4cc3Cl)cc2)cn1 [Compound I-2-11]	40	867	–	–	–
